The values below come from paper PMC4168026 (BioMed Research International, 2014).

Experiment [1] deals with T1, CA XII (Homo sapiens, UniProt O43570).
T1 construct: five isoforms of human recombinant catalytic domains of carbonic anhydrases (CAs); made in house
Kind of experiment: Isothermal titration calorimetry (ITC), CA XII. It is filed as binding. On the technique in general: ITC needs no label: the signal is the heat of the interaction.

In experiment [2] the target is T2, CA I (Homo sapiens, UniProt P00915).
T2 construct: five isoforms of human recombinant catalytic domains of carbonic anhydrases (CAs); made in house
Put plainly: Isothermal titration calorimetry (ITC), CA I. It is filed as binding.

The target of experiment [3] is T1, CA XII. Put plainly: Fluorescent thermal shift assay (FTSA), CA XII. It is filed as binding.
The target in experiment [4] is T3, CA XIII (Homo sapiens, UniProt Q8N1Q1).
T3 construct: five isoforms of human recombinant catalytic domains of carbonic anhydrases (CAs); made in house
Kind of experiment: Fluorescent thermal shift assay (FTSA), CA XIII. It is filed as binding. The note with it: for shift of the melting temperature Tm, CA XIII: compound added to 200 μM, pH 7.0.

Experiment [5] addresses T4, CA II (Homo sapiens, UniProt P00918).
T4 construct: five isoforms of human recombinant catalytic domains of carbonic anhydrases (CAs); made in house
Kind of experiment: Isothermal titration calorimetry (ITC), CA II. It is filed as binding.

The target of experiment [6] is T4, CA II. Put plainly: Fluorescent thermal shift assay (FTSA), CA II. It is filed as binding. The note with it: 37°C, pH 7.0, read-out: Dissociation constants Kd, CA II.
Experiment [7] deals with T3, CA XIII. Put plainly: Isothermal titration calorimetry (ITC), CA XIII. It is filed as binding.
Experiment [8] concerns the target T5, CA VII (Homo sapiens, UniProt P43166).
T5 construct: five isoforms of human recombinant catalytic domains of carbonic anhydrases (CAs); made in house
Kind of experiment: Isothermal titration calorimetry (ITC), CA VII. It is filed as binding.

Experiment [9] has as its target T2, CA I. Put plainly: Fluorescent thermal shift assay (FTSA), CA I. The note with it: for Kd: FTSA; for energetic contribution (difference in ΔG of binding), CA I: against compound 2, from FTSA, pH 7.0, 37°C. It is filed as binding.
Experiment [10] addresses T5, CA VII. Put plainly: Fluorescent thermal shift assay (FTSA), CA VII. It is filed as binding. The note with it: for Kd: FTSA.
In experiment [11] the target is CA VII. The note with it: read-out: affinity, CA VII; inhibition method, literature value ref 5; cited from earlier work.
[12] abbreviates: 37°C, pH 7.0, read-out: Dissociation constants Kd, CA XII.
Where [13] appears, read: 37°C, pH 7.0, read-out: Dissociation constants Kd, CA XIII.
The mark [14] stands for this setting: 37°C, pH 7.0, read-out: Dissociation constants Kd, CA VII.
[15] abbreviates: ITC, 37°C, pH 7.0, read-out: Dissociation constants Kd, CA XII.
Where [16] appears, read: 37°C, pH 7.0, read-out: Dissociation constants Kd, CA I.
Where [17] appears, read: ITC, 37°C, pH 7.0, read-out: Dissociation constants Kd, CA I.
The mark [18] stands for this setting: ITC, 37°C, pH 7.0, read-out: Dissociation constants Kd, CA II.

“And” between values parts separate entries of the source, which are not always exact repeats. Equal values may be shown once. Where only a bound is given, the exact number is not on record here.

T1 sequence (O43570 30-289 limits assumed): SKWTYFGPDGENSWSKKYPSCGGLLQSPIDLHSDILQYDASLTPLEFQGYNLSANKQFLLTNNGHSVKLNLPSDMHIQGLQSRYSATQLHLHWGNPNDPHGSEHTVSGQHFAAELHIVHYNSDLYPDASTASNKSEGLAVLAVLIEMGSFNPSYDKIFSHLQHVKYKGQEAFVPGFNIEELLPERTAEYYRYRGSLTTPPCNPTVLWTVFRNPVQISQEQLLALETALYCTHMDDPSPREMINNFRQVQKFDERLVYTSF
T2 sequence (P00915 4-261 limits assumed): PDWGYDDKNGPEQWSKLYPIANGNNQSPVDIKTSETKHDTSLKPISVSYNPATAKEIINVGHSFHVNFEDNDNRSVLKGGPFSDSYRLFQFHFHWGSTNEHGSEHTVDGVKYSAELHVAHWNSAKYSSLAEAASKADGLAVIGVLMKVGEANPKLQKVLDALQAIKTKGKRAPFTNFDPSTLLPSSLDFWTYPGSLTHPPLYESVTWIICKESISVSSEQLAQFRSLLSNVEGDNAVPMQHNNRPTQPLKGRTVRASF
T3 sequence (Q8N1Q1 4-261 limits assumed): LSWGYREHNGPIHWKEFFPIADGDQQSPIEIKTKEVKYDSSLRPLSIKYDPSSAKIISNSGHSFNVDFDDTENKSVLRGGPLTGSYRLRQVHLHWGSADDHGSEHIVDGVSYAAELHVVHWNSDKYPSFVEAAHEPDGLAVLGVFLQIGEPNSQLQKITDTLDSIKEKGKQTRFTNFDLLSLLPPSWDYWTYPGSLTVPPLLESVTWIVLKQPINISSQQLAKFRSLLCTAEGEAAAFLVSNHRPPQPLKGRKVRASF
T5 sequence (P43166 5-262 limits assumed): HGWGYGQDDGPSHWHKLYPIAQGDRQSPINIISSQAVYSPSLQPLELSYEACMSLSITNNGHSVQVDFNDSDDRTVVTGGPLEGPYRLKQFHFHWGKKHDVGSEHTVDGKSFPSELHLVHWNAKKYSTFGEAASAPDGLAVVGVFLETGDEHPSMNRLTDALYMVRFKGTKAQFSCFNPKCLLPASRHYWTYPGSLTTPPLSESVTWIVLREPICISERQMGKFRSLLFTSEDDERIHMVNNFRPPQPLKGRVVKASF

The Kd is the concentration at which binding is half-saturated. Consider `NS(=O)(=O)c1ccc2c(c1)S(=O)(=O)NC2=O` [Compound 2], for which the Kd in experiment [1] was 0.099 µM; in experiment [2] it was 1.4 µM; in experiment [3] (setting [12]) it was 0.22 µM; in experiment [4] (setting [13]), ~0.2 µM and 0.2 µM; in [5] it was 0.29 µM; in [6], 0.4 µM. Moreover, the Kd in experiment [7] (setting [13]) is 0.12 µM.

In the case of `CC#CCN1C(=O)c2ccc(S(N)(=O)=O)cc2S1(=O)=O` [Compound 3], the Kd in experiment [8] (setting [14]) turned out to be 0.16 µM; in experiment [1] (setting [15]), 0.25 µM; in experiment [9] (setting [16]), 0.018 µM; in experiment [2] (setting [17]) it was 0.028 µM; in experiment [3] (setting [12]), 0.29 µM; in experiment [10] (setting [14]), 0.11 µM. For the same compound, the Kd in [4] (setting [13]) is 0.045 µM; in [5] (setting [18]) it was 0.056 µM; in experiment [6], 0.02 µM; in experiment [7] (setting [13]), 0.047 µM. In experiment [9], the “energetic contribution (difference in ΔG of binding), CA I” value was -3.47 kcal/mol. For the same compound, in experiment [4], the “shift of the melting temperature Tm, CA XIII” value is listed as “significant”.

Take `O=C1NS(=O)(=O)c2ccccc21` [Compound 1, saccharin, reference compound]: the Kd in [8] (setting [14]) was over 100 µM; in [8] (all tested CAs, read-out: Kd, CA VII), over 100 µM; in experiment [1] (setting [15]), over 100 µM; in experiment [1] (ITC, all tested CAs, read-out: Kd, CA XII), over 100 µM; in experiment [9] (setting [16]), over 10000 µM; in [9] (no shift up to 7.5 mM, read-out: Kd, CA I), over 10000 µM. In addition, the Kd in experiment [2] (setting [17]) is over 100 µM; in experiment [2] (ITC, all tested CAs, read-out: Kd, CA I), over 100 µM; in experiment [3] (read-out: Kd, CA XII), 5900 µM; in experiment [10] (read-out: Kd, CA VII) it was 1000 µM; in [4] (setting [13]), 2000 µM; in [4] (read-out: Kd, CA XIII), 2000 µM. The Kd in experiment [7] (setting [13]) was over 100 µM; in experiment [7] (all tested CAs, read-out: Kd, CA XIII), over 100 µM. In experiment [10] (FTSA Kd against 10 nM of ref 5), the “affinity weaker than the literature value, CA VII” value is given as 100,000 fold. In addition, the Ki in experiment [11] was 0.01 µM.

For the compound `NS(=O)(=O)c1ccc2c(c1)S(=O)(=O)N(CCc1ccccc1)C2=O` [Compound 4], the Kd in [8] (setting [14]) was under 0.02 µM; in experiment [1] (setting [15]), 0.04 µM; in [9] (read-out: affinity (Kd), CA I), 0.00033 µM; in [2] (setting [17]) it was under 0.02 µM; in experiment [3] (setting [12]), 0.025 µM; in experiment [10] (setting [14]), 0.0043 µM. The Kd in experiment [4] (setting [13]) was 0.0067 µM; in experiment [5] (setting [18]), under 0.02 µM; in experiment [6] it was 0.0025 µM; in [7] (setting [13]), under 0.02 µM. For the same compound, the “energetic contribution (difference in ΔG of binding), CA I” value in experiment [9] is -5.93 kcal/mol. Besides, in [4], the “shift of the melting temperature Tm, CA XIII” value is listed as “significant”.
